Where two headings read alike, the source gives them in different places.
Legend:
His6-BRD4 (BD1) = molecular target: T1, His6-BRD4 (BD1) (Homo sapiens, UniProt O60885); assay: Surface plasmon resonance (SPR) single-dose screening; type: binding; design: key to SPR RESULT: Positive: compounds were considered as SPR hits also when their average signal was further than two standard deviations apart from the average signal of the blank samples (1% DMSO); settings: for RUs at [10 µM]: SPR, compound 10 µM, 1% DMSO, n = 2, decimal comma; for SPR RESULT: single dose 10 µM, n = 2
T1 construct: A pET28 plasmid containing residues 44–168 of BRD4 (BD1), a 6xHis tag, a TEV protease cleavage site; made in house; host or cells: E. coli Rosetta (D3)

BRD4 (BD1) [1] = molecular target: T2, BRD4 (BD1) (Homo sapiens, UniProt O60885); assay: Differential scanning fluorimetry (DSF) single-dose thermal shift screening; type: binding; settings: for ΔTm at 10 µM: read-out: ΔTm ºC at [10 µM]
T2 construct: A pET28 plasmid containing residues 44–168 of BRD4 (BD1), a 6xHis tag, a TEV protease cleavage site; 6xHis (N, cleaved yes); made in house; host or cells: E. coli Rosetta (D3)

BRD4 (BD1) [2] = molecular target: T2, BRD4 (BD1); assay: Competitive HTRF TR-FRET binding assay (displacement of acetylated histone H4 peptide); settings: 16-point titration 0.1 nM to 10 µM, n = 2, Negative = curve could not be fitted to a sigmoidal curve; for IC50: read-out: TR-FRET IC50
[3] = DSF, compound 10 µM, BRD4 (BD1) 2 µM, n = 3, decimal comma

SMILES	RUs at [10 µM] (His6-BRD4 (BD1))	ΔTm at 10 µM (BRD4 (BD1) [1]) [°C]	ΔTm ºC at [10 µM] (BRD4 (BD1) [1]; [3])	TR-FRET IC50 (nM) (BRD4 (BD1) [2])	SPR RESULT (His6-BRD4 (BD1))	ΔTm at 10 µM (BRD4 (BD1) [1]; [3]) [°C]	IC50 (BRD4 (BD1) [2]) [nM]
COc1cc2c(cc1-c1c(C)noc1C)ncc1[nH]c(=O)n([C@H](C)c3ccccn3)c12 [Compound 2, CC1=C(C(=NO1)C)C2=C(C=C3C(=C2)N=CC4=C3N(C(=O)N4)C(C)C5=CC=CC=N5)OC, reference compound]	95,35 ± 25,76 RUs						
Cc1sc2c(c1C)C(c1ccc(Cl)cc1)=NC(CC(=O)OC(C)(C)C)c1nnc(C)n1-2 (stereo not shown) [Compound 3, CC1=C(SC2=C1C(=NC(C3=NN=C(N32)C)CC(=O)OC(C)(C)C)C4=CC=C(C=C4)Cl)C, reference compound]	99,15 ± 6,82 RUs	9.28					
COc1ccc(-n2c(C)nnc2SCC(=O)Nc2ccc(C)c(Cl)c2Cl)cc1 [Compound 12, COC=1C=CC(=CC1)N2C(C)=NN=C2SCC(=O)NC=3C=CC(C)=C(Cl)C3Cl]	78,35 ± 18,49 RUs		-0,57 ± 0,38 ºC	Negative	Positive		
Cn1ccnc1C1CCN(C(=O)c2nn(C)c(=O)c3ccccc23)C1 (stereo not shown) [Compound 13, CN1C=CN=C1C2CCN(C2)C(=O)C3=NN(C)C(=O)C=4C=CC=CC34]	5,53 ± 2,74 RUs				Negative	0.45	1.46
COc1ccc(NS(=O)(=O)c2cc(C(=O)Nc3ccc4nnc(C(C)C)n4c3)ccc2F)cc1 [Compound 14, COC=1C=CC(NS(=O)(=O)C=2C=C(C=CC2F)C(=O)NC=3C=CC4=NN=C(C(C)C)N4C3)=CC1]	23,29 ± 9,67 RUs				Negative	1.94	661
COc1ccc2c(c1)N(C(=O)c1cn(C)c(=O)c3ccccc13)CC2 [Compound 15, COC=1C=CC=2CCN(C(=O)C3=CN(C)C(=O)C=4C=CC=CC34)C2C1]	28,19 ± 22,85 RUs				Negative	1.71	1010
CCCc1c(C(=O)NCc2cccc3c2OCCO3)[nH]c(C)c1C(C)=O [Compound 16, CCCC1=C(NC(C)=C1C(=O)C)C(=O)NCC=2C=CC=C3OCCOC23]	20,24 ± 10,15 RUs				Negative	-0.43	1090
COc1ccc(-n2c(C)nnc2SCC(=O)Nc2cn(C)nc2C(N)=O)cc1 [Compound 17, COC=1C=CC(=CC1)N2C(C)=NN=C2SCC(=O)NC3=CN(C)N=C3C(=O)N]	9,07 ± 0,52 RUs				Positive	1.17	192
COc1ccc(C2(NCC(=O)Nc3cc(-n4nnnc4C)ccc3F)CCOCC2)cc1 [Compound 18, COC=1C=CC(=CC1)C2(CCOCC2)NCC(=O)NC=3C=C(C=CC3F)N4N=NN=C4C]	2,91 ± 1,98 RUs				Negative	-0.7	1140
COc1ccc(-n2c(C)nnc2SCC(=O)NCc2ccc(F)c(C)c2)cc1 [Compound 19, COC=1C=CC(=CC1)N2C(C)=NN=C2SCC(=O)NCC=3C=CC(F)=C(C)C3]	33,98 ± 20,29 RUs				Negative	1.36	543
Cc1ccc(CNC(=O)c2ccc3nnc(C)c(C)c3c2)c(OC2CCOC2)c1 (stereo not shown) [Compound 20, CC=1C=CC(CNC(=O)C=2C=CC=3N=NC(C)=C(C)C3C2)=C(OC4CCOC4)C1]	41,88 ± 12,55 RUs			Negative	Positive	2.33	
CCOc1ccc(-n2nc(Cc3ccncc3)nc2-c2cn(C)c(=O)c3ccccc23)cc1 [Compound 21, CCOC=1C=CC(=CC1)N2N=C(CC=3C=CN=CC3)N=C2C4=CN(C)C(=O)C=5C=CC=CC45]	38,73 ± 19,2 RUs				Negative	2.33	552
CCCc1c(C(=O)N2CCOC(Cn3cc(-c4ccsc4)nn3)C2)[nH]c(C)c1C(C)=O (stereo not shown) [Compound 22, CCCC1=C(NC(C)=C1C(=O)C)C(=O)N2CCOC(CN3C=C(N=N3)C=4C=CSC4)C2]	20,06 ± 0,43 RUs				Positive	2.02	46
CC(C)=CC(=O)NCCC1CCN(C(=O)c2cn(C)c(=O)c3ccccc23)C1 (stereo not shown) [Compound 23, CC(=CC(=O)NCCC1CCN(C1)C(=O)C2=CN(C)C(=O)C=3C=CC=CC23)C]	5,93 ± 1,05 RUs				Negative	2.61	3.44
Cc1nn(C)cc1C(=O)NC1CCC2(CC1)CCN(C(=O)c1sc3nnc(C)c(C)c3c1N)CC2 [Compound 24, CC1=NN(C)C=C1C(=O)NC2CCC3(CC2)CCN(CC3)C(=O)C=4SC=5N=NC(C)=C(C)C5C4N]	40,95 ± 7,16 RUs				Positive	2.35	1760
CCCc1c(C(=O)N2CCC(F)(F)C(CNC(=O)c3nc(C)c(C)s3)C2)[nH]c(C)c1C(C)=O (stereo not shown) [Compound 25, CCCC1=C(NC(C)=C1C(=O)C)C(=O)N2CCC(F)(F)C(CNC(=O)C3=NC(C)=C(C)S3)C2]	22,43 ± 8,33 RUs				Negative	2.41	149
CCCc1c(C(=O)N2CCOC(CN(C)C(=O)c3cccn3C)C2)[nH]c(C)c1C(C)=O (stereo not shown) [Compound 26, CCCC1=C(NC(C)=C1C(=O)C)C(=O)N2CCOC(CN(C)C(=O)C3=CC=CN3C)C2]	22,04 ± 8,53 RUs				Negative	2.61	1020
COc1cccc(-n2c(C)nnc2SCC(=O)NC2(CO)CCCCCCC2)c1 [Compound 27, COC=1C=CC=C(C1)N2C(C)=NN=C2SCC(=O)NC3(CO)CCCCCCC3]	28,33 ± 20,88 RUs	-0.98		Negative	Negative		
COc1ccc(-n2c(C)nnc2SCC(=O)NCC2(N)CCOCC2)cc1 [Compound 28, COC=1C=CC(=CC1)N2C(C)=NN=C2SCC(=O)NCC3(N)CCOCC3]	16,66 ± 3,56 RUs			Negative	Positive	0.36	
CC(=O)c1c(C)[nH]c(C(=O)N2CCCC(c3cn(CC4CC5CC5C4)nn3)C2)c1C (stereo not shown) [Compound 29, CC(=O)C1=C(C)NC(C(=O)N2CCCC(C2)C3=CN(CC4CC5CC5C4)N=N3)=C1C]				Negative	Negative	-1.17	
COc1cccc(-n2c(C)nnc2SCC(=O)N2CCCN(C(=O)c3cc(F)c[nH]3)CC2)c1 [Compound 30, COC=1C=CC=C(C1)N2C(C)=NN=C2SCC(=O)N3CCCN(CC3)C(=O)C4=CC(F)=CN4]	17,68 ± 18,73 RUs			Negative	Negative	0.43	
CCn1nnc2cc(C(=O)N3CCC(CCNC(=O)c4nc(O)sc4C)C3)ccc21 (stereo not shown) [Compound 31, CCN1N=NC=2C=C(C=CC12)C(=O)N3CCC(CCNC(=O)C=4N=C(O)SC4C)C3]	8,73 ± 4,6 RUs			Negative	Negative	0.02	
COc1cccc(-n2c(C)nnc2SCC(=O)NC2CN(C(=O)C3CCOCC3)CC23CC3)c1 (stereo not shown) [Compound 32, COC=1C=CC=C(C1)N2C(C)=NN=C2SCC(=O)NC3CN(CC43CC4)C(=O)C5CCOCC5]	3,3 ± 1,9 RUs				Negative	0.87	386
CCCc1c(C(=O)N2CCC(Cc3cn(-c4cccc(F)c4C)nn3)C2)[nH]c(C)c1C(C)=O (stereo not shown) [Compound 33, CCCC1=C(NC(C)=C1C(=O)C)C(=O)N2CCC(CC3=CN(N=N3)C=4C=CC=C(F)C4C)C2]	8,85 ± 1,09 RUs			Negative	Negative	0.1	
CCn1nnc2cc(C(=O)N3CCCN(C(=O)c4ccccc4Cl)C(c4ccccc4)C3)ccc21 (stereo not shown) [Compound 34, CCN1N=NC=2C=C(C=CC12)C(=O)N3CCCN(C(C3)C=4C=CC=CC4)C(=O)C=5C=CC=CC5Cl]	23,05 ± 1,41 RUs				Positive	0.86	1210
COc1cccc(-n2c(C)nnc2SCC(=O)N2CC3CCC2CN3C(=O)c2ccns2)c1 (stereo not shown) [Compound 35, COC=1C=CC=C(C1)N2C(C)=NN=C2SCC(=O)N3CC4CCC3CN4C(=O)C5=CC=NS5]	13,78 ± 5,32 RUs				Negative	0.69	1070
CCn1nnc2cc(C(=O)N3CCC(N(C)C(=O)C4CN(C)CCO4)C3)ccc21 (stereo not shown) [Compound 36, CCN1N=NC=2C=C(C=CC12)C(=O)N3CCC(C3)N(C)C(=O)C4CN(C)CCO4]	6,83 ± 2,31 RUs			Negative	Negative	0.34	
COc1cccc(-n2c(C)nnc2SCC(=O)N2CC(n3cc(-c4ccc(F)cn4)nn3)C2)c1 [Compound 37, COC=1C=CC=C(C1)N2C(C)=NN=C2SCC(=O)N3CC(C3)N4C=C(N=N4)C=5C=CC(F)=CN5]	12,42 ± 11,24 RUs			Negative	Negative	0.77	
Cc1cc(C)n2nc(NC(=O)N3CCC(F)(F)C4(CCOC4)C3)nc2n1 (stereo not shown) [Compound 68, CC=1C=C(C)N2N=C(NC(=O)N3CCC(F)(F)C4(CCOC4)C3)N=C2N1]	9,66 ± 4,71 RUs				Negative	1.11	

Source: publication PMC12316891, “A bottom-up approach to find lead compounds in expansive chemical spaces” (Communications Chemistry, 2025)
